From the supplement of paper PMC10307832

Key:
Assay in all cases: relative viability (nuclei count vs DMSO), 5 days (fraction); higher = more cells survive
[1] = test system: NCI-H2085
Procedure, shortened: (§1)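 For relative viability, nuclei counts in treated wells were divided by those in vehicle wells. Lung cancer cell lines had been pin-tool dosed in 1536-well plates the day after seeding and cultured for 5 days, then fixed and stained in one step (final 0.05% Triton X-100, 1% formaldehyde, 1 ug/ml Hoechst) and imaged at 4×. Doses were one drug alone or a fixed anchor-drug dose plus five library-drug doses (not always all listed) in √10 steps, and values are duplicate-plate medians.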

[2] = test system: NCI-H1975
Procedure, shortened: as §1

[3] = test system: NCI-H1437
Procedure, shortened: as §1

[4] = test system: LOU-NH91
Procedure, shortened: as §1

[5] = test system: NCI-H838
Procedure, shortened: as §1

[6] = test system: NCI-H2023
Procedure, shortened: as §1

[7] = test system: CAL-12T
Procedure, shortened: as §1

[8] = test system: NCI-H1650
Procedure, shortened: as §1

[9] = test system: NCI-H460
Procedure, shortened: as §1

[10] = test system: NCI-H1651
Procedure, shortened: as §1

[11] = test system: COR-L23
Procedure, shortened: as §1

[12] = test system: NCI-H1355
Procedure, shortened: as §1

[13] = test system: NCI-H441
Procedure, shortened: as §1

[14] = test system: SK-LU-1
Procedure, shortened: as §1

[15] = test system: NCI-H1734
Procedure, shortened: as §1

[16] = test system: HCC-366
Procedure, shortened: as §1

[17] = test system: LU99A
Procedure, shortened: as §1

[18] = test system: NCI-H1793
Procedure, shortened: as §1

[19] = test system: NCI-H358
Procedure, shortened: as §1

[20] = test system: NCI-H2342
Procedure, shortened: as §1

[21] = test system: BEN
Procedure, shortened: as §1

## CC(=O)O[C@@]12CO[C@@H]1C[C@H](O)[C@@]1(C)C(=O)[C@H](O)C3=C(C)[C@@H](OC(=O)[C@H](O)[C@@H](NC(=O)OC(C)(C)C)c4ccccc4)C[C@@](O)([C@@H](OC(=O)c4ccccc4)[C@H]21)C3(C)C [Docetaxel] + CC(=O)Nc1cccc(-n2c(=O)n(C3CC3)c(=O)c3c(Nc4ccc(I)cc4F)n(C)c(=O)c(C)c32)c1 [Trametinib] (partner 0.02 µM)
[1]; first compound 0.0002 µM
  relative viability: 0.503
[1]; first compound 0.000632 µM
  relative viability: 0.513
[1]; first compound 0.002 µM
  relative viability: 0.324
[1]; first compound 0.006325 µM
  relative viability: 0.329
[1]; first compound 0.02 µM
  relative viability: 0.199
[2]; first compound 0.0002 µM
  relative viability: 0.386
[2]; first compound 0.000632 µM
  relative viability: 0.263
[2]; first compound 0.002 µM
  relative viability: 0.241
[2]; first compound 0.006325 µM
  relative viability: 0.167
[2]; first compound 0.02 µM
  relative viability: 0.148
[3]; first compound 0.0002 µM
  relative viability: 0.528
[3]; first compound 0.000632 µM
  relative viability: 0.501
[3]; first compound 0.002 µM
  relative viability: 0.264
[3]; first compound 0.006325 µM
  relative viability: 0.216
[4]; first compound 0.0002 µM
  relative viability: 0.766
[4]; first compound 0.000632 µM
  relative viability: 0.783
[4]; first compound 0.002 µM
  relative viability: 0.607
[4]; first compound 0.006325 µM
  relative viability: 0.449
[4]; first compound 0.02 µM
  relative viability: 0.354
[5]; first compound 0.0002 µM
  relative viability: 0.456
[5]; first compound 0.000632 µM
  relative viability: 0.638
[5]; first compound 0.002 µM
  relative viability: 0.183
[5]; first compound 0.006325 µM
  relative viability: 0.141
[5]; first compound 0.02 µM
  relative viability: 0.0997
[6]; first compound 0.0002 µM
  relative viability: 0.498
[6]; first compound 0.000632 µM
  relative viability: 0.521
[6]; first compound 0.002 µM
  relative viability: 0.141
[6]; first compound 0.006325 µM
  relative viability: 0.127
[6]; first compound 0.02 µM
  relative viability: 0.0628
[7]; first compound 0.0002 µM
  relative viability: 0.294
[7]; first compound 0.000632 µM
  relative viability: 0.267
[7]; first compound 0.002 µM
  relative viability: 0.229
[7]; first compound 0.006325 µM
  relative viability: 0.15
[7]; first compound 0.02 µM
  relative viability: 0.119
[8]; first compound 0.0002 µM
  relative viability: 0.392
[8]; first compound 0.000632 µM
  relative viability: 0.4
[8]; first compound 0.002 µM
  relative viability: 0.217
[8]; first compound 0.006325 µM
  relative viability: 0.107
[9]; first compound 0.0002 µM
  relative viability: 0.103
[9]; first compound 0.000632 µM
  relative viability: 0.0804
[9]; first compound 0.002 µM
  relative viability: 0.0715
[9]; first compound 0.006325 µM
  relative viability: 0.0192
[9]; first compound 0.02 µM
  relative viability: 0.0118
[10]; first compound 0.0002 µM
  relative viability: 0.843
[10]; first compound 0.000632 µM
  relative viability: 0.83
[10]; first compound 0.002 µM
  relative viability: 0.586
[10]; first compound 0.006325 µM
  relative viability: 0.268
[11]; first compound 0.0002 µM
  relative viability: 0.528
[11]; first compound 0.000632 µM
  relative viability: 0.579
[11]; first compound 0.002 µM
  relative viability: 0.223
[11]; first compound 0.006325 µM
  relative viability: 0.155
[11]; first compound 0.02 µM
  relative viability: 0.0909
[12]; first compound 0.0002 µM
  relative viability: 0.384
[12]; first compound 0.000632 µM
  relative viability: 0.441
[12]; first compound 0.002 µM
  relative viability: 0.262
[12]; first compound 0.006325 µM
  relative viability: 0.26
[12]; first compound 0.02 µM
  relative viability: 0.183
[13]; first compound 0.0002 µM
  relative viability: 0.389
[13]; first compound 0.000632 µM
  relative viability: 0.255
[13]; first compound 0.002 µM
  relative viability: 0.202
[13]; first compound 0.006325 µM
  relative viability: 0.187
[13]; first compound 0.02 µM
  relative viability: 0.144
[14]; first compound 0.0002 µM
  relative viability: 0.518
[14]; first compound 0.000632 µM
  relative viability: 0.468
[14]; first compound 0.002 µM
  relative viability: 0.411
[14]; first compound 0.006325 µM
  relative viability: 0.281
[14]; first compound 0.02 µM
  relative viability: 0.223
[15]; first compound 0.0002 µM
  relative viability: 0.615
[15]; first compound 0.000632 µM
  relative viability: 0.54
[15]; first compound 0.002 µM
  relative viability: 0.351
[15]; first compound 0.006325 µM
  relative viability: 0.337
[15]; first compound 0.02 µM
  relative viability: 0.198
[16]; first compound 0.0002 µM
  relative viability: 0.303
[16]; first compound 0.000632 µM
  relative viability: 0.102
[16]; first compound 0.002 µM
  relative viability: 0.0555
[16]; first compound 0.006325 µM
  relative viability: 0.0799
[16]; first compound 0.02 µM
  relative viability: 0.0179
[17]; first compound 0.0002 µM
  relative viability: 0.53
[17]; first compound 0.000632 µM
  relative viability: 0.561
[17]; first compound 0.002 µM
  relative viability: 0.346
[17]; first compound 0.006325 µM
  relative viability: 0.3
[18]; first compound 0.0002 µM
  relative viability: 0.378
[18]; first compound 0.000632 µM
  relative viability: 0.433
[18]; first compound 0.002 µM
  relative viability: 0.384
[18]; first compound 0.006325 µM
  relative viability: 0.316
[18]; first compound 0.02 µM
  relative viability: 0.272
[19]; first compound 0.0002 µM
  relative viability: 0.167
[19]; first compound 0.000632 µM
  relative viability: 0.138
[19]; first compound 0.002 µM
  relative viability: 0.124
[19]; first compound 0.006325 µM
  relative viability: 0.0884
[19]; first compound 0.02 µM
  relative viability: 0.083
[20]; first compound 0.0002 µM
  relative viability: 0.898
[20]; first compound 0.000632 µM
  relative viability: 0.836
[20]; first compound 0.002 µM
  relative viability: 0.567
[20]; first compound 0.006325 µM
  relative viability: 0.672
[20]; first compound 0.02 µM
  relative viability: 0.483
[21]; first compound 0.0002 µM
  relative viability: 1.08
[21]; first compound 0.000632 µM
  relative viability: 1.04
[21]; first compound 0.002 µM
  relative viability: 0.763
[21]; first compound 0.006325 µM
  relative viability: 0.419
[21]; first compound 0.02 µM
  relative viability: 0.322
